This is an account of results in paper PMC11362529, “Exploring the neuroprotective potential of Nrf2-pathway activators against annonacin toxicity” (Scientific Reports, 2024).

Holding throughout (format): cell-based, human
The test system of data set [1] is LUHMES cells. The experiment in a line: Mitochondrial membrane potential (JC-1 probe). The settings on record: CCCP 50 µM, positive control. The procedure:
In PLO/FN-coated 24-well microplates, cells were simultaneously incubated with 20 nM of annonacin and the selected concentrations of Nrf2-pathway activators, in glucose-reduced medium, over the course of 24 h. After that, the medium was removed and cells were washed once with warm HBSS, followed by incubation with 5 µM JC-1 solution in HBSS, for 20 min at 37 °C. For the positive control, the mitochondrial oxidative phosphorylation uncoupler, CCCP, was used at a concentration of 50 µM. After the incubation period, cells were washed with HBSS, and fresh HBSS was added to keep the cells viable during live-image acquisition. Image acquisition was done on a fluorescence microscope Leica-DFC9000GTC (Leica, Frankfurt, Germany). Environmental conditions were kept steady at 37 °C with a 5% CO2 atmosphere during the entire acquisition time. Ten to fifteen images from different fields of view, dispersed across triplicates, were acquired with 200 × magnification (20 × objective, 10 × intermediate magnification), using the same image acquisition parameters for all conditions. The fluorescence of JC-1 monomers was captured on the green channel (λ Ex/Em = 475/519 nm) and the fluorescence of JC-1 aggregates was capture on the red channel (λ Ex/Em = 555/594 nm). Quantification of FI (fluorescence intensities) of JC-1 monomeric and aggregated forms was done using the ImageJ software (http://rsb.info.nih.gov/ij/, ImageJ bundled with 64-bit Java 8). Briefly, TIFF exported images were submitted to background subtraction using the rolling ball method with a radius of 50 pixels. Channel-specific thresholds were applied to all images to define the ROI (region of interest) and FI were measured as integrated density. Data were reported as the ratio between JC-1 aggregates and monomers, obtained by dividing the FI of the JC-1 aggregated form by the FI of the monomeric form.

In data set [2] the test system is LUHMES cells. Nature of the data set: Mitochondrial superoxide (MitoSOX / calcein AM). The settings on record: 100 µM H2O2, 2 h, positive control. Here is the method:
As before, cells seeded on PLO/FN-coated 24-well microplates were treated for 48 h with 20 nM of annonacin and the selected concentrations of Nrf2-pathway activators, in glucose-reduced medium. After this period, the medium was removed, and the cells were washed once with warm HBSS before being simultaneously incubated with 0.5 µM of MitoSOX™ red (Thermo Fisher Scientific) and 1 µM of calcein AM for 30 min at 37 °C. Next, the cells were again washed with HBSS and fresh HBSS was added to maintain cell viability during live-image acquisition on a fluorescence microscope Leica-DFC9000GTC (Leica). The cells were kept under controlled environmental conditions, and similar image acquisition parameters were used for all images, as explained before. We acquired ten to fifteen images per condition, from different view fields across triplicates, with a 200 × magnification (20 × objective, 10 × intermediate magnification). Quantification of MitoSOX and calcein AM FI was performed using the ImageJ software. Briefly, TIFF exported images were submitted to background subtraction using the rolling ball method with a radius of 50 pixels. Channel-specific thresholds were applied to all images to define the ROI, and the FI were measured as integrated density and reported as arbitrary units (a. u.). The MitoSOX FI was normalized to cell viability estimated by calcein AM FI, to obtain a MitoSOX FI/calcein FI ratio. The average ratio of the different view fields per experimental condition was taken and reported as fold change relative to the control (DMSO-treated) condition.

The test system of data set [3] is LUHMES cells. The experiment in a line: Protective effects against annonacin toxicity, calcein viability assay. The settings on record: with 20 nM annonacin, glucose-reduced medium, 48 h; 40 μM Ki 696–2, 1 μM HPP-D, 15 μM ezetimibe, 4 μM licochalcone A; most protective or highest non-toxic concentration for the others. Here is the method: The calcein AM green dye (Thermo Fisher Scientific) was diluted in DMSO to obtain a 1 mM stock solution. The stock solution was further diluted in HBSS (Hanks' balanced salt solution), immediately before incubation, to achieve a final working concentration of 1 μM in the well. The medium was removed, the cells were washed once with warm HBSS, and 200 µl of calcein working solution was added to each well. For background correction, 200 µl of calcein working solution was added to a well without cells (background control). After 30 min of incubation at 37 °C, the calcein solution was removed and the cells were washed once with HBSS. Cells were lysed in a 200 µl volume of 1% Triton™ X-100 in PBS (phosphate buffered saline) and the lysate transferred to a 96‐well black plate for the readout. The fluorescence signal was measured on a FLUOstar® Omega plate reader (BMG LabTech, Ortenberg, Germany) at λ Ex/Em = 485/530 nm and data was analyzed with the MARS data analysis software (BMG LabTech). For background correction, we subtracted the background control signal from the measured values of all experimental conditions. Data were expressed as percentage of viability relative to the control (DMSO-treated) condition.
For pharmacological treatments, we acquired several previously described Nrf2-pathway activators: ezetimibe (Cayman), licochalcone A (MedChem Express, New Jersey, NJ, USA), bardoxolone methyl, saracatinib and PP2 (AbMole BioScience Inc., Houston, TX, USA). The enantiomers Ki 696–1 and Ki 696–2, and the compound HPP-D were kindly provided by Orion Pharma (Espoo, Finland). All compounds were dissolved in DMSO and stored in small aliquots at -80 °C to avoid freeze–thaw cycles. Compound general toxicity was determined on PLO/FN double-coated 48-well microplates as follows: after 4 days of differentiation, LUHMES cells were incubated with the different Nrf2-pathway activators at concentrations ranging from 1 nM to 100 µM, for 96 h. The cell viability was assessed by calcein assay on day 8 of differentiation. Non-toxic concentrations of the Nrf2-pathway activators were selected and used in the pharmacological treatments, in combination with 20 nM of annonacin, in glucose-reduced differentiation medium, over a period of 48 h, similar to an in vitro model reported before. The protective effects of Nrf2-pathway activators against annonacin toxicity were determined in terms of cell viability with the calcein assay.

The subject of data set [4] is LUHMES cells. The experiment in a line: Compound general toxicity, calcein viability assay. The settings on record: 1 nM to 100 μM, 96 h, differentiation medium, calcein fluorescence. Here is the method:
We used LUHMES (lund human mesencephalic) cells derived from human embryonic ventral mesencephalic cells by conditional immortalization (Tet-off v-myc overexpression). Cells were grown in monolayer at 37 °C in a humidified atmosphere of 5% CO2, in 75 cm^2 tissue culture flasks coated with 0.05 µg/ml PLO (poly-L-ornithine). Cells were maintained in growth medium of DMEM/F12 (Sigma-Aldrich, St. Louis, MO, USA), supplemented with 1% N-2 supplement (Gibco, Thermo Fisher Scientific, Waltham, MA, USA) and 0.04 µg/ml basic fibroblast growth factor (PreproTech EC, Waltham, MA, USA), and routinely dissociated with trypsin–EDTA solution and subcultured when reaching 70% confluence to avoid overgrowth. […]
The calcein AM green dye (Thermo Fisher Scientific) was diluted in DMSO to obtain a 1 mM stock solution. […] Cells were lysed in a 200 µl volume of 1% Triton™ X-100 in PBS (phosphate buffered saline) and the lysate transferred to a 96‐well black plate for the readout. The fluorescence signal was measured on a FLUOstar® Omega plate reader (BMG LabTech, Ortenberg, Germany) at λ Ex/Em = 485/530 nm and data was analyzed with the MARS data analysis software (BMG LabTech). For background correction, we subtracted the background control signal from the measured values of all experimental conditions. Data were expressed as percentage of viability relative to the control (DMSO-treated) condition. […]

For `N#CC(C#N)=NNc1cccc(Cl)c1` [CCCP], the “mitochondrial membrane potential (JC-1 aggregates)” value in the data set with LUHMES cells [1] is “drastically reduced the presence of JC-1 aggregates”.

Consider `OO` [H2O2], for which the MitoSOX fluorescence intensity entry with LUHMES cells [2] is on record as “increased the MitoSOX fluorescence intensity”.

Regarding `CC(C)(C)n1nc(-c2ccc(Cl)cc2)c2c(N)ncnc21` [PP2], the “reduction of annonacin toxicity” value with LUHMES cells [3] is given as “no statistical differences”.

On to `COC(=O)[C@]12CCC(C)(C)C[C@H]1[C@H]1C(=O)C=C3[C@@]4(C)C=C(C#N)C(=O)C(C)(C)[C@@H]4CC[C@@]3(C)[C@]1(C)CC2` [bardoxolone, bardoxolone methyl], for which the “impact on viability of differentiated LUHMES neuronal cells (compound toxicity)” value in the data set on LUHMES cells [4] is listed as “extremely neurotoxic at concentrations above the nanomolar range”.

Turning to `CN1CCN(CCOc2cc(OC3CCOCC3)c3c(Nc4c(Cl)ccc5c4OCO5)ncnc3c2)CC1` [saracatinib], in the data set with LUHMES cells [3], the “reduction of annonacin toxicity” value is recorded as “no statistical differences”.
